# Test results: the METLIN SMRT retention time set (Domingo-Almenara et al. 2019)
# Experiment: gradient 5% acetonitrile 3 min, to 50% in 2 min, to 85% in 15 min, held 3 min, 100 µL/min
# Settings: column: Zorbax Extend-C18 2.1 x 50 mm; eluents: water / acetonitrile, 0.1% formic acid
# How it was run: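 The system's dead and dwell volumes were 40 μL and 900 μL, with a Zorbax Extend-C18 column (2.1 × 50 mm, 1.8 μm) run at 100 μL/min in water and acetonitrile containing 0.1% formic acid each. Pure standards were analyzed in mixtures of ~100 molecules by HPLC–quadrupole time-of-flight mass spectrometry in positive and negative ionization mode. Retention time was assigned from computationally picked, manually inspected adduct peaks.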
row,RP-LC retention time [s],SMILES
1,706,Cc1cccc(NC(=O)N2CC(N(C3CCOCC3)S(C)(=O)=O)C2)c1
2,688,O=C(NCc1ccc2c(c1)OCO2)c1ccc(S(=O)(=O)NCC2CCCO2)cc1 (centres undefined)
3,644,CCOCC(=O)N1CC(c2nc(CCOCC3CCOCC3)no2)C1
4,807,COc1ccc(NS(=O)(=O)c2[nH]ncc2C(=O)NCc2ccc(SC)cc2)cc1
5,1070,Cc1ccc(-c2noc(Cn3c(=O)n(-c4cccc(C)c4)c(=O)c4sccc43)n2)cc1
6,876,Cc1cc(N2CCN(S(=O)(=O)c3ccc(C)c(C)c3)CC2)nc(NC2CCCCC2)n1
7,695,COc1ccc(OC)c(NC(=O)c2c(OC)cc(=O)n3c2CCCC3)c1
8,936,COc1ccc(-c2nc3cnccn3c2Nc2ccc(C(C)C)cc2)cc1OC
9,935,CCOC(=O)Oc1c(OC)cc(C(=O)O[C@@H]2C[C@@H]3CN4CCc5c([nH]c6cc(OC)ccc56)[C@H]4C[C@@H]3[C@H](C(=O)OC)[C@H]2OC)cc1OC
10,677,CC(C)Cc1nc2cccnc2n1C1CCN(C(=O)Nc2ccccc2)CC1
11,790,O=C(CSc1ccc(F)cc1)Nc1nnc(COc2ccccc2)o1
12,880,Cc1ccc(NS(=O)(=O)c2cc3c4c(c2)CCC(=O)N4CCC3)cc1C
13,777,CCOc1ccc(NC(=O)N2CCC3(CC2)NC(=O)c2ccc(F)cc2N3C)cc1
14,1040,O=C1CC(c2noc(-c3ccc(OC(F)(F)F)cc3)n2)CN1c1ccc(F)cc1 (centres undefined)
15,846,O=C(c1ccccc1Br)N(Cc1cccc(Cl)c1)C1CCS(=O)(=O)C1 (centres undefined)
16,835,CCc1ccc2nc(Nc3ncc4c(n3)CC(c3ccc(F)cc3)CC4=O)nc(C)c2c1 (centres undefined)
17,602,CCN(CC)CCNC(=O)C1COc2ccc(OC)cc2C1 (centres undefined)
18,877,COc1ccc(S(=O)(=O)N2C[C@@H](F)C[C@H]2C(=O)N2CCc3ccccc3C2)cc1
19,723,CCC1CN(CC(=O)N2CCN(c3ccccn3)CC2)c2ccccc2S1 (centres undefined)
20,966,CCOc1ccc(CCNC(=O)c2ccc3c(c2)N(CC)C(=O)c2ccccc2O3)cc1OCC
21,1010,CCCCN(C)C(=O)C(C)n1nc(C)c2nn(-c3ccccc3)c(-n3cccc3)c2c1=O (centres undefined)
22,608,COCC1(F)CCN(Cc2c(-c3ccc(C)cc3)nc3c(C)cccn23)CC1

row,RP-LC retention time [s],SMILES
1,588,O=C(CCC[C@@H]1[C@H]2CCCN3CCC[C@@H](CN1S(=O)(=O)c1cccs1)[C@@H]23)N1CCOCC1
2,1140,CC(C)OCCCNc1nc(Nc2ccc3c(c2)OCO3)c2cnn(-c3ccccc3)c2n1
3,809,CCN(C(=O)C(=O)c1c(C)[nH]c2ccccc12)c1ccccc1
4,956,Cc1sc(-c2nnc(C3CC3)o2)cc1NC(=O)Cc1ccc(F)cc1
5,812,COCCCNC(=O)c1ccc2cnn(Cc3ccc(Cl)cc3)c2c1
6,624,O=C(NCc1cccnc1)C1c2ccccc2C(=O)N1C1CCCCCC1 (centres undefined)
7,703,CN1CCCCCC(O)c2cc(C(=O)NCCC3=CCCCC3)ccc21 (centres undefined)
8,739,COc1cccc(-c2nnc(Cc3nc(-c4ccncc4)no3)o2)c1
9,720,CN1C(=O)CCC2(CNC(=O)c3cccn3C)CCC=C12 (centres undefined)
10,677,Cc1c(Cl)cccc1NC(=O)Cn1nc2c3cc(F)ccc3ncn2c1=O
11,876,CN(CCc1noc(COc2ccccc2)n1)C(=O)Nc1ccc(F)cc1
12,848,COc1ccc(CN2C(=O)c3ccccc3C2C(=O)NC2CCCC2)c(OC)c1 (centres undefined)
13,618,CC(C)CNC(=O)NCCn1nnc2cc(C(=O)N3CCCC3)ccc21
14,731,CC(CNC(=O)c1cc2c(s1)CN(C1CC1)C2)c1ccccc1 (centres undefined)
15,1000,CCn1c(=O)c2ccccc2n(Cc2nc(-c3ccccc3Cl)no2)c1=O
16,684,CCCNC(=O)C1CC(=O)N(CCc2c[nH]c3ccc(F)cc23)C1 (centres undefined)
17,907,COc1ccc(-c2nnc(Cc3nc(-c4ccc(F)cc4)no3)o2)cc1OC
18,611,Cc1c2cnn(-c3ccccc3)c(=O)c2c(C)n1CCCC(=O)N1CCN(c2ccccn2)CC1
19,631,O=S(=O)(Cc1ccccc1)N1CCCC(Cc2nncn2CC2CC2)C1 (centres undefined)
20,675,COC(=O)c1ccc(C2CC(=O)NC3=C2C(=O)CC(C)(C)C3)cc1 (centres undefined)
21,1120,COc1ccc(OCC2c3cc(OC)c(OC)cc3CCN2C(=O)c2cccc(Cl)c2)cc1 (centres undefined)
22,693,O=C(Nc1nccs1)C1CCCN(c2ccc3cc(S(=O)(=O)N4CCCC4)ccc3n2)C1 (centres undefined)

row,RP-LC retention time [s],SMILES
1,751,Cc1cc(NC(=O)C2CCCN(c3ncnc4c3nc3n4CCCCC3)C2)no1 (centres undefined)
2,622,C=CCNC(=O)c1nnc2n(c1=O)CCN2c1ccc(F)cc1
3,662,CCCNc1cc(N2CCC(CCC(=O)NCCc3cccs3)CC2)ncn1
4,899,O=C(Nc1ccc(F)c(Cl)c1)c1cc(=O)c(OCc2ccc(F)cc2)co1
5,1000,COc1ccc(OC)c(NC(=O)C(=O)c2cccn2C)c1
6,1010,CCCN1C(=O)COc2ccc(-c3csc(NC(=O)C(C)(C)C)n3)cc21
7,766,Cc1cccc(-c2noc(-c3cccnc3N3CCN(c4ccc5c(c4)OCO5)CC3)n2)c1
8,1020,COc1cc(OC)c(NC(=O)N2CCc3nc(-c4ccc(F)cc4)ncc3C2)cc1Cl
9,821,Cc1nnc(-c2cn(CC(=O)NCc3ccccc3Cl)c3ccccc23)o1
10,542,Cc1nnc(NC(=O)CSc2nnc(CCc3nc4ccccc4[nH]3)o2)s1
11,599,O=C(Cc1ccccc1F)N1CCC(Nc2ncnc3c2CCC3)C1 (centres undefined)
12,617,CCOc1cccc(CN2C[C@@H]3C(=O)N(CCCN4CCCC4=O)C(=O)[C@@H]3C2)c1
13,978,CCOC(=O)c1ccc(NC(=O)C2CCC(=O)N2S(=O)(=O)c2ccc(C)c(C)c2)cc1 (centres undefined)
14,731,COCc1nc(CCNS(=O)(=O)c2ccc(F)cc2)no1
15,1030,O=C(NC1(c2nc(-c3ccncc3)no2)CCCCC1)c1ccc(C(F)(F)F)cc1
16,788,O=C(NCc1ccccc1F)c1ccc2c(c1)nc1n2CCN(C2CCCCC2)C1=O
17,745,O=c1cc(CSc2nnc(-c3ccccc3F)o2)nc2sccn12
18,642,Cc1noc(C2CN(C(=O)Cc3noc4ccccc34)C2)n1
19,823,CCc1onc(C)c1C1CCCN1C(=O)Cc1ccccc1F (centres undefined)
20,1140,CCC(C)NS(=O)(=O)c1cc(-c2cc(C(F)(F)F)on2)sc1C (centres undefined)
21,722,Cn1ccc(C(=O)N2CC(n3cc(COc4ccc(F)cc4)nn3)C2)n1
22,639,O=C(NCCc1c[nH]c2ccc(Cl)cc12)c1ccncc1

row,RP-LC retention time [s],SMILES
1,907,Cc1ccccc1-n1nc2c(c1NC(=O)CSCc1ccccc1)CSC2
2,842,CCOC(=O)CCC(=O)N1CCCC(COCc2ccccc2)C1 (centres undefined)
3,684,Cc1nn(CC(=O)NCCCN2CCCC2=O)c(=O)c2cc(-c3ccccc3)nn12
4,999,COC(=O)c1c(C)oc2ccc(OCC(=O)c3ccc(F)cc3)cc12
5,744,Cc1cccc(NC(=O)N2CCC(N3CCN(Cc4ccccc4)C(=O)C3=O)CC2)c1
6,725,Cc1cccc(N2CCN(C(=O)C3CCN(C(=O)C4Sc5ccccc5NC4=O)CC3)CC2C)c1 (centres undefined)
7,756,CCCNC(=O)C1CCN(Cc2cc3ccccc3n2Cc2cccc(Cl)c2)CC1
8,560,COCCNC(=O)C1(CCO)CCN(Cc2ccccc2)C1 (centres undefined)
9,582,COc1ccc(-c2nnc(N3CCC(C(=O)N4CCN(C)CC4)CC3)o2)cc1
10,676,CCC(=O)NCCc1csc(C2CCCN(C(=O)C3CCC3)C2)n1 (centres undefined)
11,726,CCc1nncn1C1CCN(S(=O)(=O)c2cccc(Cl)c2)CC1
12,781,O=C(NC(c1ccccc1)c1nnc(N2CCOCC2)o1)c1ccc(Cl)cc1 (centres undefined)
13,906,Cc1ccccc1Nc1c(-c2ccccc2)nc2cnccn12
14,717,CCNC(=O)C1CCCN(c2nc3ncn(CC(=O)Nc4ccc5c(c4)CCC5)c(=O)c3s2)C1 (centres undefined)
15,1040,CCC(C)NC(=O)NC1CCN(c2nc3cccnc3n(Cc3ccc(C)cc3)c2=O)CC1 (centres undefined)
16,921,O=S(=O)(Nc1cc(-c2ccoc2)no1)c1ccc2c(c1)CCC2
17,754,O=C(Cn1nc2nc(Nc3ccc(F)cc3)ccn2c1=O)Nc1ccccc1F
18,968,Cc1ccc(-c2nnc(-c3cccc(S(=O)(=O)NCc4ccco4)c3)o2)cc1
19,1010,CC(C)(C)c1ccc(OCC(=O)Nc2ccnn2Cc2ccco2)cc1
20,865,O=C(Cn1nc2c(N3CCc4ccccc4C3)nccn2c1=O)NC1CCCCC1
21,1040,COc1ccc(S(=O)(=O)Cc2nc(-c3ccc(Br)cc3)no2)cc1

row,SMILES,RP-LC retention time [s]
1,CC(C)c1c(C(=O)O)nnn1Cc1ccccc1,720
2,O=C(NCC1CC1)c1c(O)c2sccc2n(Cc2ccccc2)c1=O,766
